Test results reported in US20050171172A1, “Amide derivatives as PDGFR modulators” (Ambit Biosciences Corporation, priority 2003, published 2005).

molecular target: T1, human PDGFR-β (Homo sapiens, UniProt P09619); test: phage-display-based competitive binding assay for PDGFR-β; details: T7 phage displaying human PDGFR-β; Kd class; read-out: Binding Assay:PDGFRB (DKIN)
T1 construct: made in house
Description: The term “ND” represents non-determined values.
Kd values for the interactions between PDGFR-β and candidate small molecule ligands were measured by a phage-display-based competitive binding assay that is described in detail in U.S. Ser. No. 10/406,797 filed 2 Apr. 2003 and incorporated herein by reference. Briefly, T7 phage displaying human PDGFR-β were incubated with an affinity matrix coated with known PDGFR-β inhibitor in the presence of various concentrations of the soluble competitor molecules. […] The Kd for the interaction between the soluble competitor molecule and PDGFR-β is equal to the concentration of soluble competitor molecule that causes a 50% reduction in the number of phage recovered in the eluate compared to a control sample lacking soluble competitor. Kd values for the interaction between PDGFR-β and several small molecules are shown in below: […]

T1 sequence (P09619 33-1106): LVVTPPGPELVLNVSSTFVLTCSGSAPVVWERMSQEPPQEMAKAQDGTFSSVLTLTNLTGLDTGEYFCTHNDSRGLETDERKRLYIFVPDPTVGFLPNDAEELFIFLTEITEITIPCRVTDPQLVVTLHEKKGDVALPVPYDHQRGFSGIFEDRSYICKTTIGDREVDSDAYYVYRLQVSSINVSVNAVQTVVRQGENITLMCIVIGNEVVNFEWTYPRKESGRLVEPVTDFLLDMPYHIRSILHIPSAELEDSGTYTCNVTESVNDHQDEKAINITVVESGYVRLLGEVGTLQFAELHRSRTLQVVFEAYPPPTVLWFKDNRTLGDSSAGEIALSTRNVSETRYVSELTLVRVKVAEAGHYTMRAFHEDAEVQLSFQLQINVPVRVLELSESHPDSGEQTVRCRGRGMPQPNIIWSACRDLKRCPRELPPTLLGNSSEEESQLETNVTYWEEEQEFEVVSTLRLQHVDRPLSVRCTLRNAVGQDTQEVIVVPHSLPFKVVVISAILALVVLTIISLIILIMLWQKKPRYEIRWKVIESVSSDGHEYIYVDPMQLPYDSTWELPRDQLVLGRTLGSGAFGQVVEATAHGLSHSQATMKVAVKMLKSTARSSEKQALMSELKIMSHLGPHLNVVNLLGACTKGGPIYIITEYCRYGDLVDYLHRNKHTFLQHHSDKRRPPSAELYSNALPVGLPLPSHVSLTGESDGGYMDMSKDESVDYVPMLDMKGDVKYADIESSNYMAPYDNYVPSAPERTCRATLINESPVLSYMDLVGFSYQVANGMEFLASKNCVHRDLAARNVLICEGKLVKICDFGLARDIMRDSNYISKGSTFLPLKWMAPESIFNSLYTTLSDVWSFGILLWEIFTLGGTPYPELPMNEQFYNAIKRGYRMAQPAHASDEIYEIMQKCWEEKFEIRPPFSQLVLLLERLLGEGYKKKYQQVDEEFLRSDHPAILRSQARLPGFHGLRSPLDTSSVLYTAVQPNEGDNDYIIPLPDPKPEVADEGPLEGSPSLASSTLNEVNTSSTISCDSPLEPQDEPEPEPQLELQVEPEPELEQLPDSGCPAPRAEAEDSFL

SMILES | Kd [µM]
Cc1csc(NC(=O)Cc2ccc(OCc3ccccc3)cc2)n1 | > 10
COc1cccc2cc([C@H](C)C(=O)Nc3cc(C(C)(C)C)on3)ccc12 | 0.1 to 1
Cc1cc(C)n(C(=O)Nc2ccc(Cl)cc2)n1 | > 10
Cc1cnc(NC(=O)Cc2ccc(OCc3ccccc3)cc2)s1 | > 10
CC(C)(C)c1cc(NC(=O)Cc2ccc(NC(=O)c3cccc4cccnc34)cc2)no1 | 1 to 10
CC(C)(C)c1cc(NC(=O)Cc2ccc(O)cc2)no1 | > 10
CC(C)(C)c1cc(NC(=O)Sc2ccc(Cl)cc2)no1 | > 10
CC(C)Cc1ccc(C(C)C(=O)Nc2ccnn2-c2ccccc2)cc1 (stereo not shown) | > 10
Cc1nn(C)c(Cl)c1C(=O)Nc1ccc(CC(=O)Nc2cc(C(C)(C)C)on2)cc1 | 0.1 to 1
CC(C)(C)c1cc(NC(=O)Cc2ccc(F)cc2)on1 | 0.1 to 1
COc1ccc(SC(=O)Nc2cc(C(C)(C)C)on2)cc1 | 1 to 10
O=C(Cc1ccc(OCc2ccccc2)cc1)Nc1nc2ccccc2s1 | > 10
O=C(Cc1ccc(OCc2ccccc2)cc1)Nc1nc(-c2ccc(Cl)cc2)cs1 | > 10
CC(C)(C)c1cc(NC(=O)Cc2ccc(Cl)cc2)on1 | 0.1 to 1
COc1cccc2sc(NC(=O)Cc3ccc(OCc4ccccc4)cc3)nc12 | > 10

Second part, the compound after the results:

Kd [µM] | SMILES
< 0.1 | Cn1cc(C(=O)Nc2ccc(CC(=O)Nc3cc(C(C)(C)C)on3)cc2)c2ccccc21
< 0.1 | CSc1ncc(Br)c(C(=O)Nc2ccc(CC(=O)Nc3cc(C(C)(C)C)on3)cc2)n1
< 0.1 | CC(C)(C)c1cc(NC(=O)Cc2ccc(Br)cc2)on1
< 0.1 | CC(C)(C)c1cc(NC(=O)Cc2ccc(OCc3ccccc3)cc2)on1
< 0.1 | COc1ccc(CC(=O)Nc2cc(C(C)(C)C)no2)cc1
< 0.1 | CC(C)(C)c1cc(NC(=O)Cc2ccc(NC(=O)c3ccc4cnccc4n3)cc2)no1
< 0.1 | CC(C)(C)c1cc(NC(=O)Cc2ccc(NC(=O)c3cnc4ccccc4c3)cc2)no1
